Test results from patent publication US12421535B2, “Biochemically produced sandalwood oil” (FIRMENICH SA, priority 2019, dated 2025).

Tests used:
ticks (Ixodes ricinus) = test: Tick repellency, adapted Warm Plate assay; assay type: in vivo
Description: The repellent effect was determined on ticks (Ixodes ricinus) using an adaptation of the Warm Plate assay as defined in Kröber T, Bourquin M, Guerin P M. A standardised in vivo and in vitro test method for evaluating tick repellents. Pesticide Biochemistry and Physiology. 2013; 107(2):160-168, adapted in reducing the size of the arena and adding a controlled temperature and humid air flow to the set-up.

NHEK = test: Anti-inflammatory test, cytokine release (ELISA), keratinocytes challenged with TNFα or PMA + A23187; assay type: cell-based, human; settings: for IL-6 % Reduction (vs A23187/EtOH) / IL-6 % Stimulation (vs Untreated) / IL-8 % Reduction (vs PMA + A23187/EtOH) / IL-8 % Stimulation (vs Untreated) / TNFα % Reduction (vs PMA + A23187/EtOH) / TNFα % Stimulation (vs Untreated): PMA 10 ng/ml + A23187 2 uM; for CXCL-5 % Reduction (vs TNFa/EtOH) / CXCL-5 % Stimulation (vs Untreated) / MCP-1 % Reduction (vs TNFa/EtOH) / MCP-1 % Stimulation (vs Untreated): TNFa 50 ng/ml
Description: (§1) Monolayer cultures of Normal Human foreskin-derived Dermal Fibroblasts (NHDFs; ATCC, CRL-2522) were used for the anti-inflammatory study. The cells were grown in Dulbecco's Modified Eagle Medium (DMEM, Gibco/Life Technologies, 31885) supplemented with 10% of Foetal Bovine Serum (FBS, Gibco/Life Technologies, 10270) and antibiotics (penicillin/streptomycin, Gibco/Life Technologies, 15140). Monolayer cultures of Normal Human Epidermal Keratinocytes (NHEKs; Lonza, 00192906) were used for the anti-inflammatory study. The cells were grown in Epilife medium containing gentamycin and HKGS (Human Keratinocyte Growth Supplement).
(§2) The cells were maintained in a humidified incubator at 37° C. with a 5% CO2 atmosphere for the indicated treatment periods before performing metabolic, cytokine and gene expression assays.
(§3) Both NHEK and NHDF cell types were cultured in 24-well plates for 24 h in complete medium before being exposed to the test and reference items. Test compositions were applied on the cells 2 h before the 24 h-challenge with pro-inflammatory agents (see table below). Each sample was compared to solvent control conditions. At the end of treatment, all the supernatants were collected and stored at −20° C. until further use in specific ELISA assays for the quantification of the extracellular release of IL-8, IL-6, TNF-α, MCP-1 and CXCL5, based on a standard curve, according to the kits supplier's specifications.
(§4) Sandalwood oil of the invention was tested at 20 μg/ml on both keratinocytes and fibroblasts, in a comparison with S. album essential oil. Keratinocytes and fibroblasts were cultivated under conditions that stimulate the onset of inflammation. After induction of an inflammation state and test compounds application, cell culture supernatants were collected for further ELISA quantification. The ability of the ingredients in reducing the production of selected inflammation markers (MCP-1, CXCL5, IL-6, IL-8 and TNFalpha for NHEK only) was then measured by ELISA (Enzyme-Linked ImmunoSorbent Assay), a biochemical assay commonly used to quantify substances.

NHDF = test: Anti-inflammatory test, cytokine release (ELISA), LPS-challenged fibroblasts; assay type: cell-based, human; settings: LPS 0.5 ug/ml
Description: as §1, §2, §3, §4

[1] = system: Reconstructed Human Epidermis (RHE) mimicking sensitive skin; test: Protein expression (immuno-fluorescence) in RHE model mimicking sensitive skin; assay type: cell-based; settings: Cytokine Mix + solvent, 10 uM, 48 h, untreated = 100
Description: Human epidermis was reconstituted in vitro as described previously. […] Sandalwood oil of the invention was diluted at 20 μg/ml and 40 μg/ml in culture medium and added together with the cytokine cocktail during the same 48 h. The reference compound GW3965 (10 μM), a synthetic nonsteroidal liver X receptor (LXR) agonist was applied in the culture medium for 48 h as well. Protein levels of loricrin, involucrin and HAS3 were quantified at the end of the treatments by immuno-fluorescence. One section of each sample was dewaxed and rehydrated and the slides were incubated in the presence of the primary antibody specific for each of the 3 target proteins. Fluorescein-conjugated secondary antibodies were then used to detect the primary antibodies. DAPI Slowfade Diamond was used to detect the nuclei of the cells.

NHEKs keratinocytes = test: Cytotoxicity MTS assay, NHEKs under PMA/calcium ionophore or TNF-α challenge; assay type: cell-based, human; settings: SDS 0.008%, 26 h
Description: (§5) A preliminary study was performed in order to determine the non-cytotoxic working concentrations for both the sandalwood oil of the invention and a reference sandalwood oil. The cell viability was evaluated using the standard MTS assay (3-(4,5-dimethythiazol-2-yl)-5-(3-carboxy-methoxyphenyl)-2-(4-sulfophenyl)-2H-tetrazolium) after treatment with the test ingredients (160-80-40-20-10 μg/ml, tested in triplicate).
(§6) The test was performed both under basal conditions (i.e. without pro-inflammatory challenge) and pro-inflammatory stimuli for either 24 h-72 h or 26 h, respectively. Cells were seeded in 24-wells plates with complete medium, 24 h before treatment.
(§7) Test ingredients were solubilized in solvent (DMSO or ethanol) and applied to the culture medium of cells 2 hours prior to the pro-inflammatory challenge (when required). SDS at 0.008% or 0.08% was used as cytotoxicity positive control to validate the experiment on NHEKs keratinocytes or NHDFs fibroblasts, respectively.
(§8) In order to ensure experiments would be carried out with test composition concentrations that are non-cytotoxic, a cytotoxicity study was performed on NHEK and NHDF after 26 h of treatment (2 h alone and 24 h under inflammatory challenge with LPS for NHDFs fibroblasts and PMA/calcium ionophore or TNF-α for NHEKs). […]

NHDFs fibroblasts = test: Cytotoxicity MTS assay, NHDFs under LPS challenge; assay type: cell-based, human; settings: SDS 0.08%, 26 h
Description: as §5, §6, §7, §8

[2] = system: Reconstructed Human Epidermis (RHE); test: Permeability of Reconstructed Human Epidermis, biotin diffusion; assay type: cell-based

CCCCN(CCC(=O)OCC)C(C)=O [IR3535, Ethyl butylacetylaminopropionate]
% of affected ticks (ticks (Ixodes ricinus); 0.016 mg/mL): 0%
% of affected ticks (ticks (Ixodes ricinus); 0.4 mg/mL): 33%
% of affected ticks (ticks (Ixodes ricinus); 10 mg/mL): 56%

CC(C)Cc1ccc(C(C)C(=O)O)cc1 (centres unmarked) [Ibuprofen]
IL-6 % Reduction (vs A23187/EtOH) (NHEK; 100 uM): −24%
IL-6 % Stimulation (vs Untreated) (NHEK; 100 uM): 462%
IL-8 % Reduction (vs PMA + A23187/EtOH) (NHEK; 100 uM): −19%
IL-8 % Stimulation (vs Untreated) (NHEK; 100 uM): 16034%
TNFα % Reduction (vs PMA + A23187/EtOH) (NHEK; 100 uM): −29%
TNFα % Stimulation (vs Untreated) (NHEK; 100 uM): 55645%
IL-6 % Reduction (vs A23187/EtOH) (NHEK; 500 uM): −67%
IL-6 % Stimulation (vs Untreated) (NHEK; 500 uM): 202%
IL-8 % Reduction (vs PMA + A23187/EtOH) (NHEK; 500 uM): −39%
IL-8 % Stimulation (vs Untreated) (NHEK; 500 uM): 12190%
TNFα % Reduction (vs PMA + A23187/EtOH) (NHEK; 500 uM): −85%
TNFα % Stimulation (vs Untreated) (NHEK; 500 uM): 12099%
secretion levels of mediators of inflammation (NHEK; PMA + A23187 or TNF-α, dexamethasone with the exception of CXCL-5): reduced significantly
CXCL-5 % Reduction (vs TNFa/EtOH) (NHEK; 100 uM): −22%
CXCL-5 % Stimulation (vs Untreated) (NHEK; 100 uM): 337%
MCP-1 % Reduction (vs TNFa/EtOH) (NHEK; 100 uM): −18%
MCP-1 % Stimulation (vs Untreated) (NHEK; 100 uM): 2471%
CXCL-5 % Reduction (vs TNFa/EtOH) (NHEK; 500 uM): −47%
CXCL-5 % Stimulation (vs Untreated) (NHEK; 500 uM): 229%
MCP-1 % Reduction (vs TNFa/EtOH) (NHEK; 500 uM): −63%
MCP-1 % Stimulation (vs Untreated) (NHEK; 500 uM): 1126%
CXCL-5 % Reduction (vs LPS/EtOH) (NHDF; 100 uM): −19%
CXCL-5 % Stimulation (vs Untreated) (NHDF; 100 uM): 2929%
IL-6 % Reduction (vs LPS/EtOH) (NHDF; 100 uM): −24%
IL-6 % Stimulation (vs Untreated) (NHDF; 100 uM): 16853%
IL-8 % Reduction (vs LPS/EtOH) (NHDF; 100 uM): −14%
IL-8 % Stimulation (vs Untreated) (NHDF; 100 uM): 11037%
MCP-1 % Reduction (vs LPS/EtOH) (NHDF; 100 uM): −4%
MCP-1 % Stimulation (vs Untreated) (NHDF; 100 uM): 1342%
CXCL-5 % Reduction (vs LPS/EtOH) (NHDF; 500 uM): −39%
CXCL-5 % Stimulation (vs Untreated) (NHDF; 500 uM): 2216%
IL-6 % Reduction (vs LPS/EtOH) (NHDF; 500 uM): −46%
IL-6 % Stimulation (vs Untreated) (NHDF; 500 uM): 11977%
IL-8 % Reduction (vs LPS/EtOH) (NHDF; 500 uM): −36%
IL-8 % Stimulation (vs Untreated) (NHDF; 500 uM): 8242%
MCP-1 % Reduction (vs LPS/EtOH) (NHDF; 500 uM): −32%
MCP-1 % Stimulation (vs Untreated) (NHDF; 500 uM): 950%

O=C(O)Cc1cccc(OCCCN(Cc2cccc(C(F)(F)F)c2Cl)CC(c2ccccc2)c2ccccc2)c1 [GW3965]
Hyaluronan synthase 3 (HAS 3) RQ [1]: 106
Involucrin (IVL) RQ [1]: 160

CCN(CC)C(=O)c1cccc(C)c1 [DEET, N,N-diethyl-meta-toluamide]
% of affected ticks (ticks (Ixodes ricinus); 0.016 mg/mL): 11%
% of affected ticks (ticks (Ixodes ricinus); 0.4 mg/mL): 20%
% of affected ticks (ticks (Ixodes ricinus); 10 mg/mL): 81%

CCC(C)OC(=O)N1CCCCC1CCO (centres unmarked) [Picaridin, sec-butyl 2-(2-hydroxyethyl)piperidine-1-carboxylate]
% of affected ticks (ticks (Ixodes ricinus); 0.016 mg/mL): 8%
% of affected ticks (ticks (Ixodes ricinus); 0.4 mg/mL): 50%
% of affected ticks (ticks (Ixodes ricinus); 10 mg/mL): 92%

CCCCCCCCCCCCOS(=O)(=O)[O-].[Na+] [SDS]
cell viability (NHEKs keratinocytes): strong decrease in cell viability
cell viability (NHDFs fibroblasts): strong decrease in cell viability
Surface stained*mean intensity/surface area ([2]; 48 h, SDS 0.005%): 103
biotin abundance (% relative to untreated) ([2]; 48 h, SDS 0.005%, versus untreated): 614%
barrier function of epidermis ([2]; SDS at 0.005%, compared to untreated control): reduced the barrier function

C[C@@H]1C[C@H]2[C@@H]3CCC4=CC(=O)C=C[C@]4(C)[C@@]3(F)[C@@H](O)C[C@]2(C)[C@@]1(O)C(=O)CO [Dexamethasone]
IL-6 % Reduction (vs A23187/EtOH) (NHEK; 10 uM): −55%
IL-6 % Stimulation (vs Untreated) (NHEK; 10 uM): 275%
IL-8 % Reduction (vs PMA + A23187/EtOH) (NHEK; 10 uM): −25%
IL-8 % Stimulation (vs Untreated) (NHEK; 10 uM): 14801%
TNFα % Reduction (vs PMA + A23187/EtOH) (NHEK; 10 uM): −57%
TNFα % Stimulation (vs Untreated) (NHEK; 10 uM): 33869%
CXCL-5 % Reduction (vs TNFa/EtOH) (NHEK; 10 uM): 251%
CXCL-5 % Stimulation (vs Untreated) (NHEK; 10 uM): 1525%
MCP-1 % Reduction (vs TNFa/EtOH) (NHEK; 10 uM): −53%
MCP-1 % Stimulation (vs Untreated) (NHEK; 10 uM): 1432%
CXCL-5 % Reduction (vs LPS/EtOH) (NHDF; 10 uM): 77%
CXCL-5 % Stimulation (vs Untreated) (NHDF; 10 uM): 6414%
IL-6 % Reduction (vs LPS/EtOH) (NHDF; 10 uM): −70%
IL-6 % Stimulation (vs Untreated) (NHDF; 10 uM): 6606%
IL-8 % Reduction (vs LPS/EtOH) (NHDF; 10 uM): −39%
IL-8 % Stimulation (vs Untreated) (NHDF; 10 uM): 7738%
MCP-1 % Reduction (vs LPS/EtOH) (NHDF; 10 uM): −23%
MCP-1 % Stimulation (vs Untreated) (NHDF; 10 uM): 1067%
